Our source for the inhibition and EC50 values is ChEMBL document CHEMBL1132755, “First enantiospecific synthesis of a 3,4-dihydroxy-L-glutamic acid [(3S,4S)-DHGA], a new mGluR1 agonist” (Bioorg Med Chem Lett, 2000).

In assay [1] the target is Metabotropic glutamate receptor 4 (Homo sapiens) (UniProt Q14833). The experiment in a line: Tested for inhibition of glutamate induced stimulation of Metabotropic glutamate receptor 4 in HEK 293 cells. Type of assay: functional, cell-based. As to conditions: HEK293; concentration not given here.
Assay [2] deals with Metabotropic glutamate receptor 1 (Homo sapiens, UniProt Q13255). The experiment in a line: Effect of compound on Metabotropic glutamate receptor 1 expressed in HEK 293 cells was determined by measuring IP production relative to glutamate. It is filed as functional, cell-based, HEK293.
Assay [3] has as its target Metabotropic glutamate receptor 2 (Homo sapiens) (UniProt Q14416). The experiment in a line: Tested for inhibition of glutamate induced stimulation of Metabotropic glutamate receptor 2 in HEK 293ells. It is filed as functional, cell-based. As to conditions: HEK293; concentration not given here.

Chain of Metabotropic glutamate receptor 2 (Homo sapiens) (Q14416 19-872 limits assumed): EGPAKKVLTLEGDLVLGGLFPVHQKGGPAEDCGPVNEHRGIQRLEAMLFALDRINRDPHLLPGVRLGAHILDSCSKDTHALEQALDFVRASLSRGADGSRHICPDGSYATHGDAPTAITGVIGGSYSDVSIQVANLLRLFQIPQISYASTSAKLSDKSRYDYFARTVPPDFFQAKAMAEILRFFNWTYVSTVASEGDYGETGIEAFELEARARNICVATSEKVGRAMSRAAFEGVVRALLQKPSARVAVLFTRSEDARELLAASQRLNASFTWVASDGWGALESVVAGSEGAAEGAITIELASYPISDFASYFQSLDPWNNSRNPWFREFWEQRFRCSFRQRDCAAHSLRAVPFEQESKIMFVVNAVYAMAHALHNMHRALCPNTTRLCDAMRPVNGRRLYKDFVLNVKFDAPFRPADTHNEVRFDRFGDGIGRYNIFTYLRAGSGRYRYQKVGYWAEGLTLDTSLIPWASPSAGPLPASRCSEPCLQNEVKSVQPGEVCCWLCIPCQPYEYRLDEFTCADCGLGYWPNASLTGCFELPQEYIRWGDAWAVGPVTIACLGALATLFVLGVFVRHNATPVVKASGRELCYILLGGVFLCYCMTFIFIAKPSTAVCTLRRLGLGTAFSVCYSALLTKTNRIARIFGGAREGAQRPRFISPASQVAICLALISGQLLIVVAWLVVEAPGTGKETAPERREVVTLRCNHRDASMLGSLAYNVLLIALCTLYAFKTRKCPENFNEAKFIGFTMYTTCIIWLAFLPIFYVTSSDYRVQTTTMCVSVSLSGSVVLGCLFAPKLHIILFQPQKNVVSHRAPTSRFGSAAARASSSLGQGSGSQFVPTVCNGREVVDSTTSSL
Chain of Metabotropic glutamate receptor 4 (Homo sapiens) (Q14833 whole entry): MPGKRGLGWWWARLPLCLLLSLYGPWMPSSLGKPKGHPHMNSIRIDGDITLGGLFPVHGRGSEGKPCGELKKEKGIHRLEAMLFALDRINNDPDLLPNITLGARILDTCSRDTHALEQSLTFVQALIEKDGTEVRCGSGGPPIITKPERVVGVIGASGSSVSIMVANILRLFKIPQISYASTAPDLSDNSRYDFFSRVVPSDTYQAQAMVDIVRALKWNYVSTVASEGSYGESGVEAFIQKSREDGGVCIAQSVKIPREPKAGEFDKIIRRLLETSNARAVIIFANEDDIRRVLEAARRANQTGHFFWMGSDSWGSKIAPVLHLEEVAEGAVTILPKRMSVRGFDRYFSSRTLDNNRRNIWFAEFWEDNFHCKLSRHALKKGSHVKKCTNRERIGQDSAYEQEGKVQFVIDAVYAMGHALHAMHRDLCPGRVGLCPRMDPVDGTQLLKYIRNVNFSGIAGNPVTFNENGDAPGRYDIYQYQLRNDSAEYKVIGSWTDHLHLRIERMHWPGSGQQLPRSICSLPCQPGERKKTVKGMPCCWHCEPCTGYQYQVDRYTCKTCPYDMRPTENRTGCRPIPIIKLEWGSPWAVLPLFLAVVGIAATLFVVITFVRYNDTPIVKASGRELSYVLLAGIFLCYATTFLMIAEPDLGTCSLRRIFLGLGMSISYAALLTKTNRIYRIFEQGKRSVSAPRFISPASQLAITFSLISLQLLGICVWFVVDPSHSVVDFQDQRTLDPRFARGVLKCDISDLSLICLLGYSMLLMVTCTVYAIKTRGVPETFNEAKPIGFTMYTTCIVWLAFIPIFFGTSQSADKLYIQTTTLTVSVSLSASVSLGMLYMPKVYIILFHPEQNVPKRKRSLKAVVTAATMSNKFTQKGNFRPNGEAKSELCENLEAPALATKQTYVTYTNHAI
Chain of Metabotropic glutamate receptor 1 (Q13255 whole entry): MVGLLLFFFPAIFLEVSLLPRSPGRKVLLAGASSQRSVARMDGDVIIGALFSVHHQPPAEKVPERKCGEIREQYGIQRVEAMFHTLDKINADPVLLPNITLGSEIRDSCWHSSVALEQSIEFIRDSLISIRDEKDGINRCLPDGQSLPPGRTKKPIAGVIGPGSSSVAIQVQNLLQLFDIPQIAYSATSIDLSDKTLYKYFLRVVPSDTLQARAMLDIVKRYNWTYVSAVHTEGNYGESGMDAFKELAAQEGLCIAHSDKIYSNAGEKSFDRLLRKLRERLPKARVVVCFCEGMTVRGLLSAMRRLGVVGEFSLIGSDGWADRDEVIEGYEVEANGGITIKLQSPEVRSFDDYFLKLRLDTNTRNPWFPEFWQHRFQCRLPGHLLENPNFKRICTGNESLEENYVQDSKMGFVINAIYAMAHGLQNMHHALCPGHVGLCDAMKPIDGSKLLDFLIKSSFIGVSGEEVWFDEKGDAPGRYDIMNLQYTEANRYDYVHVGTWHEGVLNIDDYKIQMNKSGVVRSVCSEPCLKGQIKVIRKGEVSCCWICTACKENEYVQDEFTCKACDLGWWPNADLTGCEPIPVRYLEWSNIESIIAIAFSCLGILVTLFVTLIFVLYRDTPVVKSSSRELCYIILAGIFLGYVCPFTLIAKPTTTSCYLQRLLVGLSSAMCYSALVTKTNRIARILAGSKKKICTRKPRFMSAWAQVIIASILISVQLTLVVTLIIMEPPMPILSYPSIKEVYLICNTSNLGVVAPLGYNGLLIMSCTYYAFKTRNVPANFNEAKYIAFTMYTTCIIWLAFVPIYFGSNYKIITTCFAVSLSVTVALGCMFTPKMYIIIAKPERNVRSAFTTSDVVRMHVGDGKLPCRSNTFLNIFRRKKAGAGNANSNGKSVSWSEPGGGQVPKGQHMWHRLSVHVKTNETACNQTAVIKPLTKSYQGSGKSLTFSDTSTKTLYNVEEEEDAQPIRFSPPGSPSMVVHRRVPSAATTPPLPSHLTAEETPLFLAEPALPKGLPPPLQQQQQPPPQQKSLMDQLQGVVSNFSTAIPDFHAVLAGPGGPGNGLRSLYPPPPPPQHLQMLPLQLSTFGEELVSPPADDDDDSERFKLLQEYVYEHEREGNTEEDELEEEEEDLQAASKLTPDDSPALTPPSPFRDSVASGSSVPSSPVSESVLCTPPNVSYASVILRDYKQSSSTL

In general, inhibition refers to the share of the control response that was lost under treatment. Low values mean a weak effect, high ones a strong effect. The term EC50 denotes the concentration that produces a half-maximal response. Read a low EC50 as higher potency in that assay. For the molecule `N[C@H](C(=O)O)[C@H](O)[C@H](O)C(=O)O`, the inhibition in assay [1] is 57%; in assay [3], 29%. This molecule also had an EC50 in assay [2] of 257 µM.
